One experiment has as its system ECS engendered amnesy. The experiment in a line: passive avoidance test, electroconvulsive shock (ECS) induced amnesia. The experiment is classed as in vivo, rat. The settings on record: groups of 10. How it is done: (§1) The antiamnesic activity was tested by means of the classical passive avoidance test, with respect to the amnesy induced in the rat, by administration of scopolamine, or by means of electroconvulsive shock (ECS).For both the tests a shuttle-box was used of the Ugo Basile Company (Comerio, Varese), consisting of two compartments, one of which compartments was clear and the other one dark and fitted with an electrifiable floor.
(§2) In order to induce a passive avoidance response, the animal was placed onto a runner of the clear compartment, enlightened by a 60 watt lamp, for a 1 minute acclimatisation, whereafter a bulkhead was opened putting the runner in communication with the dark compartment, which the animal istinctively entered after a latency of a few seconds. The bulkhead was immediately shut and the animal got a 0.21 mA current for 2 second through the electrifiable floor. The animal was then removed and newly subjected to the test 24 h later, in order to verify the retention level of the acquired response of passive avoidance, measuring the latency required by the entry into the electrifiable compartment, with an end-point of 300 second.
(§3) All the tests were carried out under conditions of stratified randomization, using in each test session the same number of animals for the different experimental groups tested in parallel, and comprising, besides the groups treated with the product under test (test substances and reference substances having known activity), two separate groups of controls and precisely: blank controls (animals treated with placebo) and deconditioned controls (animals treated with placebo and subjected to amnesic treatment by means of scopolamine or of ECS).
(§4) The results obtained with the different dosages of the products subjected to screening and with the corresponding reference standards having a known activity, namely N(S)-3-(formyl-amino)-epsilon-caprolactam, N(4-phenylbutanoyl-hydroxy)prolyl-pyrrolidine and glycerophosphoryl-serine, were expressed as a percentage of antagonism of the amnesy (AA), defined according to the following formula: [formula] wherein the index of comparison IC, concerning treated animals (t) and blank controls (b), is defined by the formula: [formula] wherein: Nm = number of animals belonging to group m (blanks or treated animals); Nn = number of animals belonging to group n (deconditioned animals); Amn = binary function which can assume only the values +1, zero or - 1, depending on the fact that the latency time (seconds) of an animal of the m group (xm) be respectively higher than, equal to or lower than the latency time (seconds) of an animal of the n group (xn).
(§5) The summation Σ Amn i extended to all the pairs obtained combining each xm term with each xn term.
(§6) Normally the comparison index (IC) between blank controls and deconditioned controls is between 60% and 80% and the test was discarded when such index resulted to be lower than 40%.
The animals got the products to be tested 30 minute before undergoing the previously described avoidance test.
In this series of experimental works the deconditioning treatment consists of an electroshock (square wave of 45 m, amplitude 0.6 ms, time 2 s and frequency 40 Hz), delivered by means of auricular electrodes, connected to an electrostimulator ECT/UNIT of the Ugo Basile Company (Comerio, Varese).
The used dosages were 8x10⁻² mmol/kg for the standard substances, therefore higher than the ones used in the preceeding test and this depends on a lower activity of the standard substances, previously ascertained in this test, in our experimental conditions.
The dosages of the products to be tested were correlatively comprised between 2x10⁻² and 24x10⁻² mmol/kg, with an intermediate dosage equimolar (8x10⁻² mmol/kg) with respect to the ones of the standard substances.

The subject of experiment [1] is scopolamine induced amnesy. The experiment in a line: passive avoidance test, scopolamine induced amnesia (intraperitoneal administration). The experiment is classed as in vivo, rat. The settings on record: scopolamine 1 mg/kg; for Avoid. time (sec.) After 24 h: re-test after 24 h, end-point 300 second. How it is done:
as §1, §2, §3, §4, §5, §6
The utilized rats were male C.r.l.: CD (50) BR (Charles River Italia), showing a weight of 150-170 g, after an acclimatisation time of a week, under standard conditions.
The animals got the products to be tested by intraperitoneal way and scopolamine bromhydrate (1 mg/kg) by subcutaneous way, respectively 45 and 30 minutes before being subjected to the previously described avoidance test.
As to the standard substances [GFS, N(S)-3-(formylamino)-epsilon-caprolactam and N(4-phenylbutanoylhydroxy)prolyl-pyrrolidine], the used dosage was 4x10⁻² mmol/kg, whereas for the products to be tested the used dosage was between 1x10⁻² and 12x10⁻² mmol/kg, with an intermediate dosage equimolar with respect to the one of the standards.

Where [2] appears, read: dose 8 x 10^-2 mmoli/kg i.p. 30' before the acquisition trial.
Where [3] appears, read: dose 12 x 10^-2 mmoli/kg i.p. 30' before the acquisition trial.
Where [4] appears, read: dose 4 x 10^-2 mmoli/kg i.p. 30' before the acquisition trial.
Where [5] appears, read: dose 16 x 10^-2 mmoli/kg i.p. 30' before the acquisition trial.

Regarding `N[C@@H](COP(=O)(O)OC[C@H](O)CO)C(=O)N[C@H]1CCCCNC1=O` [MGS 4], the entries for the “Time taken to enter chamber (min)” value in the experiment on ECS engendered amnesy (setting [2]), in the experiment on ECS engendered amnesy (setting [3]) and with ECS engendered amnesy (dose 24 x 10^-2 mmoli/kg i.p. 30' before the acquisition trial) were 0,466 min, 1,316 min and 1,883 min, respectively.

Turning to `O=CN[C@H]1CCCCNC1=O` [N-Formylamino ε -caprolactame, N(S)-3-(formyl-amino)-epsilon-caprolactam, reference compound], the “Time taken to enter chamber (min)” value in the experiment on ECS engendered amnesy (setting [2]) is given as 0,131 min. In experiment [1] (dose 4.10^-2 mmoli/kg i.p.), the “No.of amnesic rats/No. of rats tested” value is 4/10, the Percent amnesia was 40% and the “Avoid. time (sec.) After 24 h” value is 72,5 sec.

Take `COC(=O)CN1CCCC[C@H](NC(=O)[C@@H](N)COP(=O)(O)OC[C@@H](COC(C)=O)OC(C)=O)C1=O` [MGS 1]: the “Time taken to enter chamber (min)” value in the experiment with ECS engendered amnesy (setting [4]) is on record as 0,664 min; in the experiment on ECS engendered amnesy (setting [2]) it was 1,378 min; in the experiment on ECS engendered amnesy (setting [3]), 1,916 min; with ECS engendered amnesy (setting [5]), 1,615 min. For the same compound, the “No.of amnesic rats/No. of rats tested” value in experiment [1] (dose 4.10^-2 mmoli/kg i.p.) is reported as 2/10; in experiment [1] (dose 8.10^-2 mmoli/kg i.p.), 1/10; in experiment [1] (dose 12.10^-2 mmoli/kg i.p.), 0/10. In addition, the Percent amnesia in experiment [1] (dose 4.10^-2 mmoli/kg i.p.) is listed as 20%; in experiment [1] (dose 8.10^-2 mmoli/kg i.p.) it was 10%; in experiment [1] (dose 12.10^-2 mmoli/kg i.p.), 0%. Also, the entries for the “Avoid. time (sec.) After 24 h” value in experiment [1] (dose 4.10^-2 mmoli/kg i.p.), in experiment [1] (dose 8.10^-2 mmoli/kg i.p.) and in experiment [1] (dose 12.10^-2 mmoli/kg i.p.) were 243,5 sec, 266,6 sec and 300 s, respectively.

As for “N(4-phenylbutanoyl-hydroxy)prolyl-pyrrolidine [Phenyl-butirryl prolyl-pirrolidine, reference compound]”, the “Time taken to enter chamber (min)” value in the experiment on ECS engendered amnesy (setting [2]) was 0,213 min. Moreover, in experiment [1] (dose 4.10^-2 mmoli/kg i.p.), the “No.of amnesic rats/No. of rats tested” value is 4/10, the Percent amnesia worked out at 40% and the “Avoid. time (sec.) After 24 h” value is on record as 101,7 sec.

Turning to `N[C@@H](COP(=O)(O)OC[C@H](O)CO)C(=O)O` [GFS, glycerophosphoryl-serine, reference compound], the “Time taken to enter chamber (min)” value in the experiment on ECS engendered amnesy (setting [2]) is listed as 0,236 min. Further, in experiment [1] (dose 4.10^-2 mmoli/kg i.p.), the “No.of amnesic rats/No. of rats tested” value is 4/10, the Percent amnesia is reported as 40% and the “Avoid. time (sec.) After 24 h” value is reported as 126,5 sec.

Turning to `COC(=O)CN1CCCC[C@H](NC(=O)[C@@H](N)COP(=O)(O)OC[C@H](O)CO)C1=O` [MGS 2], the “Time taken to enter chamber (min)” value in the experiment on ECS engendered amnesy (setting [4]) was 0,557 min; in the experiment on ECS engendered amnesy (setting [2]), 1,418 min; in the experiment with ECS engendered amnesy (setting [3]), 2,072 min; in the experiment with ECS engendered amnesy (setting [5]) it was 1,777 min. Moreover, the “No.of amnesic rats/No. of rats tested” value in experiment [1] (dose 4.10^-2 mmoli/kg i.p.) is 2/10; in experiment [1] (dose 8.10^-2 mmoli/kg i.p.) it was 0/10; in experiment [1] (dose 12.10^-2 mmoli/kg i.p.), 0/10. In addition, the Percent amnesia in experiment [1] (dose 4.10^-2 mmoli/kg i.p.) amounted to 20%; in experiment [1] (dose 8.10^-2 mmoli/kg i.p.), 0%; in experiment [1] (dose 12.10^-2 mmoli/kg i.p.), 0%. Further, the “Avoid. time (sec.) After 24 h” value turned out to be 270 s in experiment [1] (dose 4.10^-2 mmoli/kg i.p.), 300 s in experiment [1] (dose 8.10^-2 mmoli/kg i.p.) and 300 s in experiment [1] (dose 12.10^-2 mmoli/kg i.p.).

The values above are taken from EP0557936A1, “Amidic derivatives of (R)-glycerophosphoryl-(S)-serine or of its diacyl derivative, process for their preparation and relative pharmaceutical compositions for the improvement of the learning processes” (MAGIS FARMACEUTICI S.p.A., priority 1992, dated 1993).
